Laboratory results as given in patent US8846643B2, “Phosphonates with reduced toxicity for treatment of viral infections” (The Regents of the University of California, priority 2010, dated 2014).

How the values were obtained:
[1] = tested on: Vaccinia; settings: reported previously; read-out: EC50 for vaccinia inhibition; cited from earlier work
[2] = tested on: HCMV; settings: data from Beadle et al.; cited from earlier work
[3] = tested on: Cowpox; settings: data from Beadle et al.; cited from earlier work
[4] = cytotoxicity in MT-2 cells; settings: human
[5] = tested on: MT-2 cells; assay: cytotoxicity in MT-2 cells; settings: MT-2 cells
[6] = in vitro; settings: human, HFF fibroblasts
[7] = tested on: HIV-1; assay: microbe, parasite or virus in culture; settings: Human immunodeficiency virus 1, MT2
[8] = tested on: HCV genotype 1b replicon (BM4-5); assay: anti-HCV activity in genotype 1b replicon (BM4-5); assay type: cell-based, hepatitis C virus; settings: Hepatitis C virus, BM4-5, read-out: EC50 (μM) BM4-5(1b)
[9] = tested on: HIV-1NL43; assay: HIV-1 replication in human peripheral blood mononuclear cells; assay type: cell-based; settings: HIV-1 infected human PBMCs
[10] = cytotoxicity (CC50) in HCV replicon cells / Huh 7.5 liver cells; settings: human
[11] = tested on: HCV genotype 2a replicon (JFH-1); assay: anti-HCV activity in genotype 2a replicon (JFH-1); assay type: cell-based, hepatitis C virus; settings: Hepatitis C virus, read-out: EC50 (μM) JFH-1 (2a)

CCCCCCCCCCCCCCCCCCOCCOP(=O)(O)CO[C@H](CO)Cn1cnc2c(N)ncnc21 [Cmpd 1, octadecyloxyethyl 9-(S)-[3-hydroxy-2-(phosphonomethoxy)propyl]adenine, reference compound]
EC50 [1]: 20 nM | EC50 [2]: 0.003 ± 0.001 µM | EC50 [3]: 0.05 ± 0.04 µM | CC50 [4]: 30 ± 20 nM | CC50 [5]: 33 nM | CC50 [6]: 580 ± 300 nM | EC50 [7]: 0.1 nM | EC50 [8]: 1.55 ± 0.5 µM | activity against HIV-1 in human PBMCs (in words) [9]: highly active and selective | CC50 [10]: 35.6 µM | EC50 [11]: 1.65 ± 0.33 µM
